Assay results published in patent US20250034182A1, “PHOSPHOLIPID COMPOUNDS AND METHODS OF MAKING AND USING THE SAME” (priority 2021, published 2025).

Tests used:
[1] = system: HCV Replicon 2A; test: HCV Replicon 2A EC50 (Example Q); format: cell-based; details: Hepatitis C virus, 72 h; HCV replicon cells, 3 days, Dual-Glo luciferase; read-out: HCV Replicon 2A EC50 (nM) (per Ex. Q)
Description: (§1) Compounds were serially diluted in ten steps of 1:3 dilutions in 384-well plates. All serial dilutions were performed in four replicates per compound within the same 384-well plate. An HCV protease inhibitor ITMN-191 at […] was added as a control of 100% inhibition of HCV replication while puromycin at 10 mM was included as a control of 100% cytotoxicity. To each well of a black polystyrene 384-well plate (Greiner Bio-one, Monroe, NC), 90 μL of cell culture medium (without Geneticin) containing 2000 suspended HCV replicon cells was added with a Biotek μFlow workstation. For compound transfer into cell culture plates, 0.4 μL of compound solution from the compound serial dilution plate was transferred to the cell culture plate on a Biomek FX workstation. The DMSO concentration in the final assay wells was 0.44%. The plates were incubated for 3 days at 37° C. with 5% CO2 and 85% humidity. The HCV replicon assay was a multiplex assay, able to assess both cytotoxicity and antireplicon activity from the same well. The CC50 assay was performed first. The media in the 384-well cell culture plate was aspirated, and the wells were washed four times with 100 μL of PBS each, using a Biotek ELX405 plate washer. A volume of 50 μL of a solution containing 400 nM calcein AM (Anaspec, Fremont, CA) in 1×PBS was added to each well of the plate with a Biotek μFlow workstation. The plate was incubated for 30 min at room temperature before the fluorescence signal (excitation 490 nm, emission 520 nm) was measured with a Perkin-Elmer Envision plate reader. The EC50 assay was performed in the same wells as the CC50 assay. The calcein-PBS solution in the 384-well cell culture plate was aspirated with a Biotek ELX405 plate washer. A volume of 20 μL of Dual-Glo luciferase buffer (Promega, Madison, WI) was added to each well of the plate with a Biotek μFlow Workstation. The plate was incubated for 10 min at room temperature. A volume of 20 μL of a solution containing a 1:100 mixture of Dual-Glo Stop & Glo substrate (Promega, Madison, WI) and Dual-Glo Stop & Glo buffer (Promega, Madison, WI) was added to each well of the plate with a Biotek μFlow Workstation. The plate was then incubated at room temperature for 10 min before the luminescence signal was measured with a Perkin-Elmer Envision Plate Reader.

[2] = HCV Replicon 2A CC50, calcein AM (Example Q); format: cell-based; details: HCV replicon cells (2A), calcein AM fluorescence, read-out: HCV Replicon 2A CC50 (nM) (per Ex. Q)
Description: as §1

Structure (SMILES)	EC50 [1] [nM]	CC50 at 3 days [2] [nM]
CCCCCCCCCCCCCCCCCCC[C@H](COP(=O)(O)OC[C@@]1(C#N)O[C@@H](c2ccc3c(N)ncnn23)[C@H](O)[C@@H]1O)OCc1cc(Cl)cc(C#N)c1 [Compound 82, ((2R,3S,4R,5S)-5-(4-aminopyrrolo[2,1-f][1,2,4]triazin-7-yl)-2-cyano-3,4-dihydroxytetrahydrofuran-2-yl)methyl ((R)-2-((3-chloro-5-cyanobenzyl)oxy)henicosyl) hydrogen phosphate]	19200	37600
CCCCCCCCCCCCCCCCCOC[C@H](COP(=O)(O)OC[C@@]1(C#N)O[C@@H](c2ccc3c(N)ncnn23)[C@H](O)[C@@H]1O)OCc1cc(F)cc(C#N)c1 [Compound 53, ((2R,3S,4R,5S)-5-(4-aminopyrrolo[2,1-f][1,2,4]triazin-7-yl)-2-cyano-3,4-dihydroxytetrahydrofuran-2-yl)methyl ((R)-2-((3-cyano-5-fluorobenzyl)oxy)-3-(heptadecyloxy)propyl) hydrogen phosphate]	15500	36200
